Assay results from US9056999B2, “Ultraviolet-curable aqueous ink, ink cartridge, recording apparatus and recording method” (Fuji Xerox Co., Ltd., priority 2013, dated 2015).

Assay: Solubility of thioxanthone compound and tertiary amine compound in water-soluble organic solvent at 25° C.
[1] = in 3-morpholino-1,2-propanediol
[2] = in 4-(2-hydroxyethyl)morpholine

| Structure (SMILES) | solubility (25° C.) (in 2-(2-butoxyethoxy)ethanol) [mass %] | solubility (25° C.) (in 3-methylsulfolane) [mass %] | solubility (25° C.) [1] [mass %] | solubility (25° C.) (in 4-(2-aminoethyl)morpholine) [mass %] | solubility (25° C.) [2] [mass %] | solubility (25° C.) (in 4-acetylmorpholine) [mass %] | solubility (25° C.) (in 4-ethylmorpholine) [mass %] | solubility (25° C.) (in 4-hydroxypropylmorpholine) [mass %] |
| --- | --- | --- | --- | --- | --- | --- | --- | --- |
| CCc1cc(CC)c2sc3ccccc3c(=O)c2c1 [Kayacure DETX-S, 2,4-diethylthioxanthone] | 17 | 4 | 9 | 14 | 15 | 20 | – | – |
| CCOC(=O)c1ccc(N(C)C)cc1 [Kayacure EPA, 4-dimethylamino ethyl benzoate] | 30 | 18 | 30 | 30 | 30 | 35 | 40 | 18 |
| CCOC(=O)c1ccc(N(CC)CC)cc1 [4-diethylamino ethyl benzoate] | – | – | – | – | 27 | – | – | – |
| CC(C)c1ccc2sc3ccccc3c(=O)c2c1 [2-isopropylthioxanthone] | – | – | – | – | – | – | 30 | – |
